Source: paper PMC9861858, “Stereoselective Synthesis and Antiproliferative Activities of Tetrafunctional Diterpene Steviol Derivatives” (International Journal of Molecular Sciences, 2023)
“Also recorded” adds a separate entry of the source.

Legend:
HeLa cells = test: MTT antiproliferative assay, HeLa; format: cell-based, human; conditions: for inhibition at 10 µM / inhibition at 30 µM: Homo sapiens, HeLa, 72 h, values <20% considered negligible, read-out: Growth inhibition (%) ± SEM, HeLa; for Antiproliferative effect on HeLa, in words: 10 and 30 μM
In short: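 Antiproliferative effect is expressed as growth inhibition from an MTT assay after cancer cells were incubated 72 h with either 10 μM or 30 μM compound.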

[1] = system: human cancer cell lines (HeLa, SiHa, A2780, MCF-7 and MDA-MB-231); test: MTT antiproliferative assay, whole cancer cell panel; format: cell-based; conditions: 10 and 30 μM
Procedure: The in vitro antiproliferative activities of the synthesised aminotriols 5–18 against a panel of different human cancer cell lines of gynecological origin, including cervical (SiHA and HeLa), breast (MCF7 and MDA-MB-231), ovary (A2780) cancers and NIH/3T3 healthy fibroblasts, were assayed by the MTT method. Cisplatin, a clinically applied anticancer agent was used as a reference compound, and the results are summarised in Figure 3 and Table S1 in the Supplementary Materials.
The growth-inhibitory effects of the presented terpenes were determined by a standard MTT [3-(4,5-dimethylthiazol2-yl)-2,5-diphenyltetrazolium bromide] assay against […] human cancer cell lines (cervical cancer HeLa and SiHa cell lines, breast cancer MCF-7 and MDA-MB-231 and ovarian cancer A2780). Murine embryonal fibroblast cells (NIH/3T3) were used to determine selectivity. All cell lines were purchased from the European Collection of Cell Cultures (Salisbury, UK). The cells were cultivated in Eagle’s minimal essential medium supplemented with 10% fetal bovine serum, 1% non-essential amino acids, and 1% Antibiotic-Antimycotic complex (penicillin, streptomycin, amphotericin B) at 37 °C in a humidified atmosphere containing 5% CO2. All media and supplements were purchased from Lonza Group Ltd. (Basel, Switzerland). Cancer cells were seeded into 96-well plates (5000 cells/well) after an overnight incubation, and the test compounds were added at two different concentrations (10 μM and 30 μM) and incubated for another 72 h under cell-culturing conditions. Finally, 20 μL of a 5 mg/mL MTT solution was added to each well, and the contents were incubated for a further 4 h. The medium was removed, and the precipitated formazan crystals were dissolved in DMSO by shaking at 37 °C for 60 min. The absorbance was measured at 545 nm by using a microplate reader (SPECTROStar Nano, BMG Labtech, Offenburg, Germany). Clinically utilised anticancer agent cisplatin (Ebewe GmbH, Unterach, Austria) was included as a reference molecule. Calculations were performed using the GraphPad Prism 9 software (GraphPad Software Inc., San Diego, CA, USA).

[2] = Intestinal-specific parallel artificial membrane permeability assay (PAMPA-GI); format: in vitro ADME; conditions: for Papp at 4 h, 500 µM: PAMPA, read-out: PAMPA-GI Pe; for Papp at 4 h, 500 µM / PAMPA-GI MR (membrane retention): gradient pH system (pH donor 6.5 → pH acceptor 7.4) after 4 h, at 37 °C, mean ± S.E.M, n = 3; for Intestinal-specific permeability (Pe), category in words: PAMPA-GI
In short: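 Kinetic solubility: filtrates quantified by HPLC-DAD-MS against 5–500 μM calibration, target concentration 500 μM. PAMPA-GI: pH 6.5 phosphate donor, pH 7.4 PBS/5% DMSO acceptor, phosphatidylcholine/cholesterol 2:1 in dodecane membrane, 4 h at 37 °C; Pe and membrane retention calculated from HPLC-DAD-MS concentrations.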

Compound	inhibition at 10 µM (HeLa cells) [%]	inhibition at 30 µM (HeLa cells) [%]	Antiproliferative activity on the cancer cell panel, in words [1]	Papp at 4 h, 500 µM [2] [×10⁻⁶ cm/s]	PAMPA-GI MR (membrane retention) [2] [%]	Antiproliferative effect on HeLa, in words (HeLa cells)	Intestinal-specific permeability (Pe), category in words [2]
COC(=O)[C@]1(C)CCC[C@@]2(C)C3CC[C@]4(O)C[C@@]3(CCC21)[C@@H](O)[C@]4(O)CN(C)Cc1ccccc1 (stereo partly drawn) [Compound 6, (4R,6aR,7R,8R,9S,11bS)-Methyl 8-((Benzyl(methyl)amino)methyl)-7,8,9-trihydroxy-4,11b-dimethyltetradecahydro-6a,9-methanocyclohepta[a]naphthalene-4-carboxylate]	< 20	< 20	lower bioactivity; also recorded: significant activity in higher concentrations only	0.23 ± 0.08	67.3 ± 8.6	–	–
CC[C@@H](NC[C@@]1(O)[C@H](O)[C@@]23CCC4[C@@](C)(CCC[C@@]4(C)C(=O)OC)C2CC[C@]1(O)C3)c1ccccc1 (stereo partly drawn) [Compound 15, (4R,6aR,7R,8R,9S,11bS)-Methyl 7,8,9-Trihydroxy-4,11b-dimethyl-8-((((R)-1-phenylpropyl)amino)methyl)tetradecahydro-6a,9-methanocyclohepta[a]naphthalene-4-carboxylate]	63.6 ± 1.54	97.25 ± 0.5	–	0.14 ± 0.04	46.8 ± 3.3	modest inhibition	poor permeability
COC(=O)[C@]1(C)CCC[C@@]2(C)C3CC[C@]4(O)C[C@@]3(CCC21)[C@@H](O)[C@]4(O)CNCc1ccccc1 (stereo partly drawn) [Compound 5, (4R,6aR,7R,8R,9S,11bS)-Methyl 8-((Benzylamino)methyl)-7,8,9-trihydroxy-4,11b-dimethyltetradecahydro-6a,9-methanocyclohepta[a]naphthalene-4-carboxylate]	< 20	95.77 ± 0.26	significant activity in higher concentrations only	0.64 ± 0.03	29.8 ± 0.3	–	–
CC[C@H](NC[C@@]1(O)[C@H](O)[C@@]23CCC4[C@@](C)(CCC[C@@]4(C)C(=O)OC)C2CC[C@]1(O)C3)c1ccccc1 (stereo partly drawn) [Compound 16, (4R,6aR,7R,8R,9S,11bS)-Methyl 7,8,9-Trihydroxy-4,11b-dimethyl-8-((((S)-1-phenylpropyl)amino)methyl)tetradecahydro-6a,9-methanocyclohepta[a]naphthalene-4-carboxylate]	53.5 ± 1.99	98.33 ± 0.32	–	0.25 ± 0.09	44.6 ± 4.2	moderate inhibition	poor permeability
COC(=O)[C@]1(C)CCC[C@@]2(C)C3CC[C@]4(O)C[C@@]3(CCC21)[C@@H](O)[C@]4(O)CNCc1ccc(F)cc1 (stereo partly drawn) [Compound 9, (4R,6aR,7R,8R,9S,11bS)-Methyl 8-(((4-Fluorobenzyl)amino)methyl)-7,8,9-trihydroxy-4,11b-dimethyltetradecahydro-6a,9-methanocyclohepta[a]naphthalene-4-carboxylate]	42.5 ± 1.42	96.8 ± 0.74	–	0.4 ± 0.04	63.8 ± 4.9	–	–
